The data set is classed as physicochemical. The procedure:
In order to assess the API release profile from the prototypes in Example 4 to identify a lead formulation, a robust dissolution method was developed. Solubility studies were performed on the API for the selection of dissolution media. For these studies, the active concentration of the dissolution media was 0.1 milligrams per milliliter (mg/mL).
According to USP guidelines (on sink conditions) the solubility needs to be at least 3 times the proposed active concentration. […] The studies next turned to the use of higher hydrocortisone acetate concentrations (0.3 mg/mL).
In order to avoid ionization of the hydrocortisone acetate in the dissolution media, a buffer of pH 5.0 was used in combination with 5% w/v SLS. The final composition of the dissolution media was 5% w/v SLS:acetate buffer (pH 5.0) in 70:30 combination with the pH of the final combination adjusted to 6.8-7.0.

Each structure is given as a SMILES string.

For the compound `CC(=O)OCC(=O)[C@@]1(O)CC[C@H]2[C@@H]3CCC4=CC(=O)CC[C@]4(C)[C@H]3[C@@H](O)C[C@@]21C` [hydrocortisone acetate], the average recovered solubility worked out at 98.4%. For the same compound, where the note is “pH 7.2”, the “% Solubility API” value came to 4.1%.

The values are drawn from patent US12115251B2, “Hydrocortisone acetate suppository formulation for treatment of disease” (Cristcot LLC, priority 2015, dated 2024).
